According to publication PMC7956625, “Optimization and Anti-Cancer Properties of Fluoromethylketones as Covalent Inhibitors for Ubiquitin C-Terminal Hydrolase L1” (Molecules, 2021):
Where a SMILES comes first, the peptide text is derived from it. The star is where a group is joined. Cbz = O=C(OCc1ccccc1)*; CH2F = FC*

Key:
[1] = biological target: T1, UCHL5 (Homo sapiens, UniProt Q9Y5K5); assay: KMS cell activity-based probe (HA-Ub-VME) assay, HA blot higher exposure; details: 250 µM, KMS11 cells
T1 sequence (Q9Y5K5 1-245 limits assumed): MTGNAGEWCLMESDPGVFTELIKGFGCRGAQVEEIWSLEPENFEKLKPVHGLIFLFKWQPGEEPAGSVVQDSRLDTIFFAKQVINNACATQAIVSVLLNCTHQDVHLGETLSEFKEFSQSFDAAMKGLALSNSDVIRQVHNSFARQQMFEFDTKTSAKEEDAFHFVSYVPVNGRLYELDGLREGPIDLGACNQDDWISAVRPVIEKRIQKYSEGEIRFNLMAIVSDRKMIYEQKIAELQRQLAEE
Experimental: To confirm on-target engagement in KMS11 cells, a Ub activity-based probe (ABP) gel-shift assay was employed. Using the hemagglutinin-tagged Ub-vinylmethylester (HA-Ub-VME) ABP to examine the activity of 1 in KMS11 cells, an immunoblot was performed. Cells were treated in dose-response with 1 (0–250 µM), washed with PBS, then lysed and treated with HA-Ub-VME. The HA-Ub-VME labels any remaining DUBs that have not been inhibited by 1.
Twelve hours prior to the addition of compounds to the cells, 1.2 million KMS11 or KMS12 cells mL^−1 per well were seeded in a 12 well plate. Cells were incubated with inhibitor for 4 h before washing the cells three time with PBS to remove excess compound. Cells were harvested, pelleted, and lysed in 60 µL of lysis buffer (0.5%NP-40 in 50 mM Tris pH 7.4). HA-Ub-VME was then added to a final concentration of 1 µM and incubated for 1 h at room temperature. An equal volume of 2X Laemmli sample buffer was added, and the samples were heated to 95 °C before separating by gel electrophoresis and analyzed by immunoblot.

[2] = biological target: T2, His-UCHL1 (Homo sapiens, UniProt P09936); assay: Ub binding affinity analysis using biolayer interferometry; details: His-UCHL1 preincubated with 1 (2 mM) overnight at room temperature
T2 construct: made in house
T2 sequence (P09936 1-223): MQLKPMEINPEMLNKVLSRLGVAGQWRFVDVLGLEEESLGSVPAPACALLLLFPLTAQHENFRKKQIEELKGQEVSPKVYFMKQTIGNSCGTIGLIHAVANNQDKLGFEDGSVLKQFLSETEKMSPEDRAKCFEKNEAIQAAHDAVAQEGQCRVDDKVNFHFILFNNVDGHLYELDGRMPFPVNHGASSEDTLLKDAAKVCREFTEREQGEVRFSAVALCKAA
Experimental: The concentration of His-UCHL1 was determined by A280 on a NanoDrop system (Thermo Scientific), after which His-UCHL1 was diluted into BLI buffer [1× PBS containing 0.05% (v/v) Tween 20 and 0.1% (w/v) bovine serum albumin (BSA)]. […] The Ni-NTA biosensor was dipped first into BLI buffer (initial baseline, 60 s), then into the His-UCH protein wells (loading step, 300 s), then into BLI buffer alone (baseline step, 60 s), then into the lowest concentration of UbV (association step, 120 s), and then into buffer alone (dissociation step, 100 s). A reference sensor loaded with protein was dipped into wells containing only buffer to adjust for protein-buffer signals. The association-dissociation was repeated with increasing concentrations of UbV. All measurements were taken at 30 °C.
Octet RED384 Data Analysis Software (ForteBio, version 9.0.0.15) was used to collect and analyze the raw data for the association and dissociation curves.

[3] = system: SW1271 cells; assay: Click reaction and in-gel fluorescence of treated SW1271 cells; assay type: cell-based; details: 100 µM, 4 h
Experimental: Leveraging the alkyne handle, a click reaction was performed with an azide containing sulfo-cyanine5 fluorophore (Cy5) to visualize proteins within the cells that were conjugated to either the fluoromethylketone 34 or the chloromethylketone 37. Cells were pretreated with either analog then harvested and washed to removed unreacted inhibitor. The cells were then lysed and the click reaction was performed on lysates. […] Further evaluation using proteomic profiling is warranted to gain a quantitative understanding on the potential for non-specificity at off-target cysteines.
Cells were treated with 100 µM inhibitor or DMSO for 4 h before being washed, scraped, and lysed in 200 µL of lysis buffer (1× PBS, 1% v/v Triton X-100, 0.1% w/v SDS, 1X HALT) for 30 min on ice with vigorous vortexing every 10 min. Samples were then pelleted at 17,000× g for 10 min before collecting the supernatant and measuring concentration using BCA. Samples were normalized to 2 mg/mL and stored at −80 °C overnight. The following day, samples were thawed. While thawing, a click cocktail was prepared (for each sample, the cocktail consists of: 3 µL of 1.7 mM THPTA in 1:4 tBuOH/DMSO, 1 µL of 50 mM CuSO4 in water, 1 µL of 1.25 mM Cy5-N3 in DMSO, and 1 µL of 50 mM TCEP in water freshly prepared). […] The samples were then analyzed by SDS-PAGE and imaged on a Licor Odyssey and subsequently Coomassie stained.

[4] = biological target: T3, UCHL1 (Homo sapiens, UniProt P09936); assay: SW1271 cell activity-based probe target engagement assay
T3 sequence (P09936 1-223): T2 sequence (P09936 1-223)
Experimental: UCHL1 is a key promoter of cell invasion and metastasis in small cell lung cancer but not necessarily required for cell viability or proliferation. Thus, we chose to assess the efficacy of targeting UCHL1 using the SW1271 small cell lung cancer cell line. […] The Ub-ABP assay was used to confirm on target engagement of UCHL1 within these cells.
[…] Cell pellets were thawed on ice before resuspending in 200 µL lysis buffer (50 mM Tris pH 7.6, 150 mM NaCl, 5 mM MgCl2, 0.5 mM EDTA, 5 mM DTT, 2 mM ATP, 0.5% NP-40, 10% v/v glycerol) and incubating on ice for 30 min with vigorous vortexing every 10 min. Cell lysate was clarified by centrifugation (17,000× g for 10 min) and the supernatant was collected, and the concentration was determined by Bradford (performed according to manufacturer’s protocol). Cells were normalized to 2 mg mL^−1. To each reaction mixture was added 36 µL of lysate and 2 µL of HA-Ub-VME or lysis buffer. This was incubated for 30 min at room temperature before quenching with 15 µL of 4X Laemmli buffer and heating to 95 °C for 5 min. Samples were subjected to SDS-PAGE and immunoblot.

| Compound | inhibition of DUB corresponding to the molecular weight UCHL5 [1] | effect of conjugated 1 on UCHL1:Ub interaction [2] | proteins labelled in SW1271 cells (Cy5 click, in-gel fluorescence) [3] | selectivity over other DUBs in SW1271 cells (HA blot) ([4]; HA immunoblot) | HA-Ub-VME complex formation with UCHL1 in SW1271 cells ([4]; dose-response, UCHL1 immunoblot) |
| --- | --- | --- | --- | --- | --- |
| COC(=O)CC[C@H](NC(=O)[C@H](C)NC(=O)[C@@H](NC(=O)OCc1ccccc1)C(C)C)C(=O)CF [Cpd 1, benzyloxycarbonyl-Val-Ala-Glu(γ-methoxy)-fluoromethylketone] (Cbz-Val-Ala-Glu(OMe)-CH2F) | may also be inhibited | completely abrogated the ability of UCHL1 to interact with Ub | – | – | – |
| C#Cc1ccc(COC(=O)N[C@H](C(=O)N[C@@H](C)C(=O)N[C@@H](CCC(=O)OC)C(=O)CF)C(C)C)cc1 [Cpd 34] | – | – | high selectivity in cells | demonstrated selectivity over other DUBs | inhibited HA-Ub-VME complex formation with UCHL1 in a dose-dependent manner |
